Test results published in the NIST ThermoML archive (doi:10.1016/j.tca.2011.02.008).
± gives the expanded uncertainty stated by the source.

Conditions: 298.15 K; 101.33 kPa; Crystal; X-ray diffraction

Structure (SMILES) | mass density [kg/m3]
O.O.O.O.O.O.O.O=C([O-])c1cccc(C(=O)[O-])n1.O=C([O-])c1cccc(C(=O)[O-])n1.[Cu+2].[K+].[K+] [dipotassium copper 2,6-pyridinedicarboxylate heptahydrate] | 1740 ± 2
O.O.O.O.O.O.O.O=C([O-])c1cccc(C(=O)[O-])n1.O=C([O-])c1cccc(C(=O)[O-])n1.[K+].[K+].[Ni+2] [dipotassium nickel 2,6-pyridinedicarboxylate heptahydrate] | 1723 ± 2
